In this assay the target is T1, KRas-G12D (Homo sapiens, UniProt P01116, G12D).
T1 construct: insert the HiBiT tag onto the N-terminus of one or more of the endogenous KRas alleles; host or cells: AsPC-1 HiBiT-KRasG12D knock-in clone (one tagged allele, two untagged KRasG12D alleles)
The assay is described as follows: HiBiT Degradation Assay (G12D), AsPC-1 HiBiT-KRasG12D cells, 24 hr. The note with it: for Dmax: ASPC1, AsPC-1 cells, maximum degradation observed; for DC50: AsPC-1 cells. The class given is cell-based. The procedure, abridged:
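AsPC-1 cells with CRISPR N-terminal HiBiT knock-in on one endogenous KRasG12D allele, treated 24 hr at 37° C with compound titrations in 0.5% DMSO. Lytic HiBiT luminescence normalized to DMSO, fitted to a 4-parameter model for DC50 and Dmax. Parallel alamar blue (4 hr) checked viability.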
In general terms: With HiBiT, luminescence reflects the tagged protein that the partner subunit can reach.

For orientation: Dmax means the largest share of the target that was removed. In general, DC50 refers to the concentration at which degradation of the target reaches its halfway point. Read a high DC50 as degradation only at high concentration.

Some results are limits rather than exact numbers.

T1 sequence (P01116 1-188 isoform P01116-2 G12D): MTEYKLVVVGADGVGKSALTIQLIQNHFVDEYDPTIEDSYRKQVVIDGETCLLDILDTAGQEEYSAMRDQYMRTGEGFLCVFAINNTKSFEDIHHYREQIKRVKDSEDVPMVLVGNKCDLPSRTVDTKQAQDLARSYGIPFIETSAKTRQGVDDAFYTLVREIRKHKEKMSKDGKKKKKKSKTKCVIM

Regarding `C#Cc1c(F)ccc2cc(O)cc(-c3ncc4c(N5CC6CCC(C5)N6)nc(OCC5(CN6CCC7(CCN(CC8CCN(c9ccc%10c(c9)n(C)c(=O)n%10C9CCC(=O)NC9=O)CC8)CC7)CC6)CC5)nc4c3F)c12` (stereo not drawn) [Compound 193, 3-[5-[4-[[3-[[1-[[4-(3,8-diazabicyclo[3.2.1]octan-3-yl)-7-(8-ethynyl-7-fluoro-3-hydroxy-1-naphthyl)-8-fluoro-pyrido[4,3-d]pyrimidin-2-yl]oxymethyl]cyclopropyl]methyl]-3,9-diazaspiro[5.5]undecan-9-yl]methyl]-1-piperidyl]-3-methyl-2-oxo-benzimidazol-1-yl]piperidine-2,6-dione], the maximal degradation (Dmax) is greater than 70% and the DC50 is less than 5.1 µM. As to `C#Cc1c(F)ccc2cc(O)cc(-c3ncc4c(N5CC6CCC(C5)N6)nc(OC[C@@H]5CC[C@@H](COC(=O)N6CCN(c7cccc8c7CN(C7CCC(=O)NC7=O)C8=O)CC6)N5C)nc4c3F)c12` (stereo partly drawn) [Compound 117, [(2S,5S)-5-{[(4-{3,8-diazabicyclo[3.2.1]octan-3-yl}-7-(8-ethynyl-7-fluoro-3-hydroxynaphthalen-1-yl)-8-fluoropyrido[4,3-d]pyrimidin-2-yl)oxy]methyl}-1-methylpyrrolidin-2-yl]methyl 4-[2-(2,6-dioxopiperidin-3-yl)-1-oxo-2,3-dihydro-1H-isoindol-4-yl]piperazine-1-carboxylate], the 50% degradation concentration (DC50) lay within 0.25 to 1 µM. The molecule `CCc1c(F)ccc2cc(O)cc(-c3ncc4c(N5CC6CCC(C5)N6)nc(OC[C@@H]5C[C@@H](OC6CCN(CC7CCN(c8ccc9c(c8)n(C)c(=O)n9C8CCC(=O)NC8=O)CC7)CC6)CN5C)nc4c3F)c12` (stereo partly drawn) [Compound 207, 3-(5-{4-[(4-{[(3R,5S)-5-{[(4-{3,8-diazabicyclo[3.2.1]octan-3-yl}-7-(8-ethyl-7-fluoro-3-hydroxynaphthalen-1-yl)-8-fluoropyrido[4,3-d]pyrimidin-2-yl)oxy]methyl}-1-methylpyrrolidin-3-yl]oxy}piperidin-1-yl)methyl]piperidin-1-yl}-3-methyl-2-oxo-2,3-dihydro-1H-1,3-benzodiazol-1-yl)piperidine-2,6-dione] showed a Dmax greater than 70% and a DC50 of less than 5.1 µM. Taken in the same sequence, the figures for `CCc1c(F)ccc2cc(O)cc(-c3ncc4c(N5CC6CCC(C5)N6)nc(OCCN5CCC(F)(CC6CCN(CC7CCN(c8ccc9c(c8)n(C)c(=O)n9C8CCC(=O)NC8=O)CC7)CC6)CC5)nc4c3F)c12` (stereo not drawn) [Compound 182, 3-{5-[4-({4-[(1-{2-[(4-{3,8-diazabicyclo[3.2.1]octan-3-yl}-7-(8-ethyl-7-fluoro-3-hydroxynaphthalen-1-yl)-8-fluoropyrido[4,3-d]pyrimidin-2-yl)oxy]ethyl}-4-fluoropiperidin-4-yl)methyl]piperidin-1-yl}methyl)piperidin-1-yl]-3-methyl-2-oxo-2,3-dihydro-1H-1,3-benzodiazol-1-yl}piperidine-2,6-dione] were greater than 70% and less than 5.1 µM. Taken in the same sequence, the figures for `C#Cc1c(F)ccc2cc(O)cc(-c3ncc4c(N5C[C@H]6CC[C@@H](C5)N6)nc(OC[C@@H]5C[C@@H](OC6CCN(CC7CCN(c8ccc9c(c8Cl)CN(C8CCC(=O)NC8=O)C9=O)CC7)CC6)CN5C)nc4c3F)c12` (stereo partly drawn) [Compound 113, 3-(5-(4-((4-(((3R,5S)-5-(((4-((1R,5S)-3,8-diazabicyclo[3.2.1]octan-3-yl)-7-(8-ethynyl-7-fluoro-3-hydroxynaphthalen-1-yl)-8-fluoropyrido[4,3-d]pyrimidin-2-yl)oxy)methyl)-1-methylpyrrolidin-3-yl)oxy)piperidin-1-yl)methyl)piperidin-1-yl)-4-chloro-1-oxoisoindolin-2-yl)piperidine-2,6-dione] were greater than 70% and less than 5.1 µM. Molecule `CCc1cccc2cc(O)cc(-c3ncc4c(N5CC6CCC(C5)N6)nc(OCCN5CCC(CN6CCC7(CC6)CCN(c6ccc8c(c6)C(=O)N(C6CCC(=O)NC6=O)C8=O)CC7)CC5)nc4c3F)c12` (stereo not drawn) [Compound 22] came in with a DC50 of 0.1 to 5.25 µM. The molecule `C#Cc1c(F)ccc2cc(O)cc(-c3ncc4c(N5CC6CCC(C5)N6)nc(OC[C@@H]5C[C@@H](OC6CCN(CC7(F)CCN(c8ccc9c(c8F)CN(C8CCC(=O)NC8=O)C9=O)CC7)CC6)CN5C)nc4c3F)c12` (stereo partly drawn) [Compound 112, 3-(5-{4-[(4-{[(3R,5S)-5-{[(4-{3,8-diazabicyclo[3.2.1]octan-3-yl}-7-(8-ethynyl-7-fluoro-3-hydroxynaphthalen-1-yl)-8-fluoropyrido[4,3-d]pyrimidin-2-yl)oxy]methyl}-1-methylpyrrolidin-3-yl]oxy}piperidin-1-yl)methyl]-4-fluoropiperidin-1-yl}-4-fluoro-1-oxo-2,3-dihydro-1H-isoindol-2-yl)piperidine-2,6-dione] registered a Dmax greater than 70% and a DC50 of less than 5.1 µM. The matching figures for `C#Cc1c(F)ccc2cc(O)cc(-c3ncc4c(N5CC6CCC(C5)N6)nc(OC[C@@H]5C[C@@H](OC6CCN(CC7CCN(c8cccc9c8CN(C8CCC(=O)NC8=O)C9=O)CC7)CC6)CN5C)nc4c3F)c12` (stereo partly drawn) [Compound 115, 3-(4-{4-[(4-{[(3R,5S)-5-{[(4-{3,8-diazabicyclo[3.2.1]octan-3-yl}-7-(8-ethynyl-7-fluoro-3-hydroxynaphthalen-1-yl)-8-fluoropyrido[4,3-d]pyrimidin-2-yl)oxy]methyl}-1-methylpyrrolidin-3-yl]oxy}piperidin-1-yl)methyl]piperidin-1-yl}-1-oxo-2,3-dihydro-1H-isoindol-2-yl)piperidine-2,6-dione]: greater than 70% and less than 5.1 µM. The matching figures for `C#Cc1c(F)ccc2cc(O)cc(-c3ncc4c(N5CC6CCC(C5)N6)nc(OCCN5CCC(F)(CC6CCN(CC7CCN(c8ccc9c(c8)n(C)c(=O)n9C8CCC(=O)NC8=O)CC7)CC6)CC5)nc4c3F)c12` (stereo not drawn) [Compound 198, 3-[5-[4-[[4-[[1-[2-[4-(3,8-diazabicyclo[3.2.1]octan-3-yl)-7-(8-ethynyl-7-fluoro-3-hydroxy-1-naphthyl)-8-fluoro-pyrido[4,3-d]pyrimidin-2-yl]oxyethyl]-4-fluoro-4-piperidyl]methyl]-1-piperidyl]methyl]-1-piperidyl]-3-methyl-2-oxo-benzimidazol-1-yl]piperidine-2,6-dione]: greater than 70% and less than 5.1 µM. The matching figures for `C#Cc1c(F)ccc2cc(O)cc(-c3ncc4c(N5CC6CCC(C5)N6)nc(OC[C@@H](C)N5CCC(CC6CCN(CC7CCN(c8ccc9c(c8)n(C(C)C)c(=O)n9C8CCC(=O)NC8=O)CC7)CC6)CC5)nc4c3F)c12` (stereo partly drawn) [Compound 184, 3-[5-(4-{[4-({1-[(2R)-1-[(4-{3,8-diazabicyclo[3.2.1]octan-3-yl}-7-(8-ethynyl-7-fluoro-3-hydroxynaphthalen-1-yl)-8-fluoropyrido[4,3-d]pyrimidin-2-yl)oxy]propan-2-yl]piperidin-4-yl}methyl)piperidin-1-yl]methyl}piperidin-1-yl)-2-oxo-3-(propan-2-yl)-2,3-dihydro-1H-1,3-benzodiazol-1-yl]piperidine-2,6-dione]: greater than 70% and less than 5.1 µM. `CCc1cccc2cc(O)cc(-c3ncc4c(N5CC6CCC(C5)N6)nc(OCCN5CCC(CC6CCN(c7cccc8c7CN(C7CCC(=O)N(C)C7=O)C8=O)CC6)CC5)nc4c3F)c12` (stereo not drawn) [Compound 45] showed a 50% degradation concentration (DC50) of 0.25 to 1 µM. Regarding `C#Cc1c(F)ccc2cc(O)cc(-c3ncc4c(N5CC6CCC(C5)N6)nc(OCCN5CCC(CC6CCN(CC7CCN(c8ccc9c(c8F)n(C)c(=O)n9C8CCC(=O)NC8=O)CC7)CC6)CC5)nc4c3F)c12` (stereo not drawn) [Compound 206, 3-{5-[4-({4-[(1-{2-[(4-{3,8-diazabicyclo[3.2.1]octan-3-yl}-7-(8-ethynyl-7-fluoro-3-hydroxynaphthalen-1-yl)-8-fluoropyrido[4,3-d]pyrimidin-2-yl)oxy]ethyl}piperidin-4-yl)methyl]piperidin-1-yl}methyl)piperidin-1-yl]-4-fluoro-3-methyl-2-oxo-2,3-dihydro-1H-1,3-benzodiazol-1-yl}piperidine-2,6-dione], the Dmax is greater than 70% and the DC50 is less than 5.1 µM. In the case of `C#Cc1c(F)ccc2cc(O)cc(-c3ncc4c(N5CC6CCC(C5)N6)nc(OCCN5CCC(CC6(F)CCN(CC7CCN(c8ccc9c(c8)CN(C8CCC(=O)NC8=O)C9=O)CC7)CC6)CC5)nc4c3F)c12` (stereo not drawn) [Compound 90, 3-{5-[4-({4-[(1-{2-[(4-{3,8-diazabicyclo[3.2.1]octan-3-yl}-7-(8-ethynyl-7-fluoro-3-hydroxynaphthalen-1-yl)-8-fluoropyrido[4,3-d]pyrimidin-2-yl)oxy]ethyl}piperidin-4-yl)methyl]-4-fluoropiperidin-1-yl}methyl)piperidin-1-yl]-1-oxo-2,3-dihydro-1H-isoindol-2-yl}piperidine-2,6-dione], the DC50 was greater than 1 µM.

Take `C#Cc1c(F)ccc2cc(O)cc(-c3ncc4c(N5CC6CCC(C5)N6)nc(OCCN5CCN(CC6CCN(CC7CCN(c8ccc9c(c8)n(C)c(=O)n9C8CCC(=O)NC8=O)CC7)CC6)CC5)nc4c3F)c12` (stereo not drawn) [Compound 173, 3-{5-[4-({4-[(4-{2-[(4-{3,8-diazabicyclo[3.2.1]octan-3-yl}-7-(8-ethynyl-7-fluoro-3-hydroxynaphthalen-1-yl)-8-fluoropyrido[4,3-d]pyrimidin-2-yl)oxy]ethyl}piperazin-1-yl)methyl]piperidin-1-yl}methyl)piperidin-1-yl]-3-methyl-2-oxo-2,3-dihydro-1H-1,3-benzodiazol-1-yl}piperidine-2,6-dione]: the maximal degradation (Dmax) was greater than 70% and the DC50 is less than 5.1 µM.

(Values after patent US12448399B2, “Cereblon-based KRAS degrading PROTACs and uses related thereto” (Arvinas Operations, Inc., priority 2023, dated 2025).)
